What was measured:
[1] = Lipophilicity, log D of the compound at pH 7.4; type: physicochemical; conditions: buffer
Translocator protein = Translocator protein (Rattus norvegicus, UniProt P16257); assay: Displacement of [3H]PK11195 from TSPO in Wistar rat heart incubated for 15 mins
Rattus norvegicus [2] = assay: Biodistribution in naive Wistar rat whole brain at 1 to 3 MBq, iv using [18F] labeled compound measured 2 mins post dose; type: ADME, organism-based; conditions: in vivo
Rattus norvegicus [3] = assay: Biodistribution in naive Wistar rat olfactory bulbs at 1 to 3 MBq, iv using [18F] labeled compound measured 30 mins post dose; type: ADME, organism-based, Olfactory bulb; conditions: in vivo, 0.5 h
Striatum [4] = assay: Ratio of biodistribution in olfactory bulbs to striatum of in naive Wistar rat at 1 to 3 MBq, iv using [18F] labeled compound measured 30 mins post dose; type: ADME, organism-based; conditions: in vivo, 0.5 h
Striatum [5] = assay: Ratio of biodistribution in striatum at 2 mins post dose to biodistribution in striatum post 30 mins in naive Wistar rat at 1 to 3 MBq, iv using [18F] labeled compound; type: ADME, organism-based; conditions: in vivo
Brain = assay: Stability in naive Wistar rat brain assessed as parent compound level at 1 to 3 MBq, iv using [18F] labeled compound measured 60 mins post dose; type: ADME, organism-based; conditions: in vivo, 1 h
[6] = Lipophilicity, log P of the compound by HPLC method; type: physicochemical

Sequence of Translocator protein (P16257 whole entry, looked up): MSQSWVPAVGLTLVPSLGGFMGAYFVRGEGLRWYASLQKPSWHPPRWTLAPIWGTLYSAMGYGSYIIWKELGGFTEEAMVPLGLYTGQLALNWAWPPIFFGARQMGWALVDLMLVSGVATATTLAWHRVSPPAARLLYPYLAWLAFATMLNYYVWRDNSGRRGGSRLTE

Compound	logD ([1]; read-out: logD)	Ki (Translocator protein) [nM]	Drug uptake (Rattus norvegicus [2]) [% ID/g]	Drug uptake (Rattus norvegicus [3]) [% ID/g]	Ratio (Striatum [4])	Ratio (Striatum [5])	Stability (Brain) [%]	logD [1]	logP [6]
O=C(CF)N(Cc1cccc2c1OCC2)c1ccccc1Oc1ccccc1	2.68	0.31	0.81	0.68	2.52	2.52	91	–	–
COc1ncccc1CN(C(=O)CF)c1ccccc1Oc1ccccc1	2.38	–	0.66	0.33	2.54	3.92	–	–	–
O=C(CF)N(Cc1cccs1)c1ccccc1Oc1ccccc1	1.98	163	–	–	–	–	–	–	–
COc1ccc(OC)c(CN(C(=O)CF)c2ccccc2Oc2ccccc2)c1	–	–	–	–	–	–	–	2.36	–
COc1ccc(OC)c(CN(C(=O)CF)c2cncnc2Oc2ccccc2)c1	–	63	–	–	–	–	–	–	2.79
COc1ccc(OC)c(CN(C(=O)CF)c2cccc3cc(C)oc23)c1	–	6.38	0.68	0.35	3.5	6.3	80	–	–
COc1ccc(OC)c(CN(C(=O)CF)c2ccccc2OC2CCCC2)c1	3.8	0.46	0.53	0.23	2.56	5.56	45	–	–
COc1ccc(OC)c(CN(C(=O)CF)c2ccccc2Sc2ccccc2)c1	–	4.48	0.61	0.17	1.88	6.22	–	–	–
COc1ccccc1CN(C(=O)CF)c1cnccc1Oc1ccccc1	–	2.18	–	–	–	–	52	–	2.72
O=C(CF)N(Cc1cccc2c1OCCO2)c1ccccc1Oc1ccccc1	1.96	1.14	0.72	0.4	2.5	3.88	82	–	–
CCC(C)N(C)C(=O)c1cc2ccccc2c(-c2ccccc2Cl)n1 (centres undefined) [PK-11195]	3.73	–	–	–	–	–	–	–	–
COc1ccc(OC)c(CN(C(=O)CF)c2cc(F)ccc2OC(C)C)c1	–	9.84	–	–	–	–	–	–	–
CC(=O)N(Cc1cccn(CCF)c1=O)c1ccccc1Oc1ccccc1	2.2	105	–	–	–	–	–	–	–
CC1(C)Cc2cccc(CN(C(=O)CF)c3ccccc3Oc3ccccc3)c2O1	2.6	2.66	0.58	0.23	1.53	3.8	–	–	–
COc1ccc(OC)c(CN(C(=O)CF)c2ccccc2OC(C)C)c1	2.62	3.8	–	–	–	–	–	–	–
O=C(CF)N(Cc1cccc2c1OCO2)c1ccccc1Oc1ccccc1	2.8	2.03	0.65	0.37	2.85	4.77	92	–	–
COc1ncccc1CN(C(=O)CF)c1cc(F)ccc1Oc1ccccc1	2.3	3.52	0.84	0.5	2.78	4.39	72	–	–
CCC(C)N([11CH3])C(=O)c1cc2ccccc2c(-c2ccccc2Cl)n1 (centres undefined)	–	–	0.28	–	–	–	–	–	–
CC(=O)N(Cc1cccnc1OCCF)c1ccccc1Oc1ccccc1	2.6	–	–	–	–	–	–	–	–
COc1ccccc1CN(C(=O)CF)c1cccnc1Oc1ccccc1	1.51	125	0.55	0.15	1.36	4.82	–	–	–
Cc1ccc(CN(C(=O)CF)c2ccccc2Oc2ccccc2)o1	2.19	72.1	–	–	–	–	–	–	–
COc1ccc(OC)c(CN(C(=O)CF)c2cc(F)ccc2Oc2ccccc2)c1	2.06	0.05	0.73	0.7	2.06	1.71	–	–	–
COc1ccccc1CN(C(=O)CF)c1ccccc1OC1CCCC1	2.35	6.65	0.77	0.42	3.23	5.46	62	–	–
COc1ccc(OCCF)c(CN(C(C)=O)c2cccnc2Oc2ccccc2)c1	1.58	7.28	0.25	0.26	5.2	4.4	–	–	–
CC(=O)N(Cc1ccccc1OCCF)c1cccnc1Oc1ccccc1	1.69	–	0.45	0.4	3.08	2.85	–	–	–
COc1ccc(OC)c(CN(C(=O)C[18F])c2ccccc2Oc2ccccc2)c1	–	–	0.74	–	–	–	91	–	–
COc1ccc(OC)c(CN(C(=O)CF)c2ccccc2S(=O)(=O)c2ccccc2)c1	–	3430	–	–	–	–	–	–	–
COc1ccc(OC)c(CN(C(C)=O)c2cc(F)ccc2Oc2ccccc2)c1	–	0.43	–	–	–	–	–	–	–
